B1: FLT-3 Ligand (protein, UniProt P49771 27-235, looked up)
Fms-related tyrosine kinase 3 …: TQDCSFQHSPISSDFAVKIRELSDYLLQDYPVTVASNLQDEELCGGLWRLVLAQRWMERLKTVAGSKMQGLLERVNTEIHFVTKCAFQPPPSCLRFVQTNISRLLQETSEQLVALKPWITRQNFSRCLELQCQPDSSTLPPPWSPRPLEATAPTAPQPPLLLLLLLPVGLLLLAAAWCLHWQRTRRRTPRPGEQVPPVPSPQDLLLVEH
notes: cytokine added to the culture medium

Tested on: Human CB mononuclear cells
Test: Hematopoietic colony-forming cell (CFC) assay in methylcellulose-based MethoCult media
Set-up: key to Size, Morphology ranking: Ranking on the basis of colony size and morphology: 1 is best; 4 is worst
Settings: for Colony numbers as percentage of colony numbers in medium without extra cytokines, Average: average of experiments
Experimental: Frozen ficolled cord blood mononuclear cells were thawed, nucleated cells were counted by microscopy using a hemacytometer after dilution in 3% acetic acid to lyse mature erythrocytes. The cells were diluted with Iscove's MDM to 10-fold the desired cell concentration. 0.4 mL of the cell suspensions were added into an aliquot of test MethoCult® medium (4 mL) and mixed by vortexing. 1.1 mL of each cell/medium mixture was dispensed into triplicate 35 mm culture dishes using 3 mL syringes with blunt end needles, with 1.1 mL of medium per dish. All cultures were incubated for 4, 7, 10 or the standard 14 days at 37° C., 5% CO2, 100% humidity. Colonies were enumerated and classified by bright-field microscopy into the following categories based on size and morphology: CFU-E, BFU-E, CFU-GM, CFU-GEMM (StemCell Technologies, Colony Atlas). […]
Methocult® H4435 medium, which contains the 6 cytokines IL-3, IL-6, SCF, GM-CSF, G-CSF and EPO, was supplemented with Zinc Sulphate at final concentrations 2, 10 and 20 μM and 4 different CB samples were cultured for 7 and 14 days as described in Example 1. […] In one experiment, CFU-GM colonies were larger in the presence of zinc, whereas BFU-E colony size was unchanged.
To examine if adding extra cytokines can further increase colony growth, culture medium as in Example 5 was supplemented with FL, TPO or both. Cultures were set up using Cord Blood cells and colonies were counted after 7 and 14 days. […] In three of the four experiments colony size and morphology after 14 days were very similar whether or not TPO and/or FL were present in the medium. In one experiment (Exp 4 in Table 2) colonies were slightly larger in cultures without TPO and FL compared to cultures with TPO and FL. […]

[1] = Exp. 1, 7 days, added to MethoCult medium with IL-3, IL-6, G-CSF, GM-CSF, SCF, EPO, cord blood

Molecule | Colony numbers as percentage of colony numbers in medium without extra cytokines (Exp. 1, 7 days) [%] | Size, Morphology ranking (Exp. 1, 7 days) | Colony numbers per 10^5 cells plated [1] [per 10^5 cells plated] | Colony numbers as percentage of colony numbers in medium without extra cytokines (Exp. 1, 14 days) [%] | Colony numbers per 10^5 cells plated (Exp. 1, 14 days) [per 10^5 cells plated] | Size, Morphology ranking (Exp. 1, 14 days) | Colony numbers as percentage of colony numbers in medium without extra cytokines (Exp. 2, 7 days) [%] | Colony numbers per 10^5 cells plated (Exp. 2, 7 days) [per 10^5 cells plated] | Size, Morphology ranking (Exp. 2, 7 days) | Colony numbers as percentage of colony numbers in medium without extra cytokines (Exp. 2, 14 days) [%] | Colony numbers per 10^5 cells plated (Exp. 2, 14 days) [per 10^5 cells plated] | Size, Morphology ranking (Exp. 2, 14 days) | Colony numbers as percentage of colony numbers in medium without extra cytokines (Exp. 3, 7 days) [%] | Colony numbers per 10^5 cells plated (Exp. 3, 7 days) [per 10^5 cells plated] | Size, Morphology ranking (Exp. 3, 7 days) | Colony numbers as percentage of colony numbers in medium without extra cytokines (Exp. 3, 14 days) [%] | Colony numbers per 10^5 cells plated (Exp. 3, 14 days) [per 10^5 cells plated] | Size, Morphology ranking (Exp. 3, 14 days) | Colony numbers as percentage of colony numbers in medium without extra cytokines, Average (7 days) [%] | Colony numbers as percentage of colony numbers in medium without extra cytokines, Average (14 days) [%] | further results
O=S(=O)([O-])[O-].[Zn+2] [Zinc Sulphate] | – | – | – | – | – | – | – | – | – | – | – | – | – | – | – | – | – | – | – | – | total colony numbers on day 7 and 14 relative to media containing no Zinc, or 2 μM of Zinc (10 or 20 μM in Methocult H4435, 4 CB samples (FIG. 4)): increased; Effect on colony size after 14 days of culture (in Methocult H4435, 3 of the 4 experiments): no effects of zinc on colony size was observed; Colony size and morphology on day 7 compared to zinc-free medium (in Methocult H4435, particularly at 10 and 20 uM, three of 4 experiments): the colonies were larger, and more evenly spread out
Thrombopoietin [TPO] | 78 | 2 | 210 | 93 | 287 | 1 | 102 | 393 | 1 | 102 | 480 | 1 | 107 | 317 | 2 | 107 | 360 | 1 | 95 | 101 | –
B1 | 99 | 2 | 267 | 110 | 337 | 1 | 107 | 413 | 2 | 99 | 463 | 1 | 99 | 293 | 3 | 94 | 317 | 1 | 101 | 101 | –

Reference: patent publication US9273285B1, “Shorter colony-forming cell assay” (STEMCELL TECHNOLOGIES INC., priority 2008, dated 2016)
